Assay results reported in patent publication US20240150365A1 (Hotspot Therapeutics, Inc., priority 2022, published 2024).
Like-named read-outs stand apart in the source and are kept apart here.

Tests used:
NF-kB = NF-kB reporter assay in Jurkat cells stimulated with aCD3/aCD28/PMA; type: cell-based; conditions: read-out: NF-kB Reporter Assay IC50
Method: Jurkat cells were maintained in complete RPMI 1640 media supplemented with 10% FBS. Prior to the assay, 120 nL of the serial diluted compound was added in each well of 384-well flat bottom white plate (Corning #3570) by using liquid handler Echo550. Jurkat cells were harvested by centrifugation at 120 g for 10 min and resuspended in fresh RPMI 1640 media without serum. 30 μL of cells (25,000 cells) were seeded in each well of 384-well plate containing compound. After 1 hr incubation at 37° C. in a 5% CO2 incubator, 10 μL of diluted aCD3/aCD28/PMA (final concentration at 5 μg/mL, 5 μg/mL and 0.03 μg/mL, respectively) in RPMI 1640 without serum were added to each well. After incubation at 37° C. in 5% CO2 for 4 hr, 30 μL of One-Glo reagent (Promega #E6120) was added into each well. The plate was left at room temperature for 5 min and the signal was measured on EnVision (PerkinElmer).
Compounds in which an IC50 was not measured are designated as “N/A”.

MALT1 = target: T1, MALT1 (Homo sapiens, UniProt Q9UDY8); experiment: MALT-1 Fluorogenic Peptide Cleavage Assay (MALT1 inhibition assay); type: biochemical; conditions: Avi-tagged FL MALT-1, Ac-LRSR-AMC peptide substrate, 30 min pre-incubation, 90 min reaction
T1 construct: Avi-tagged FL MALT-1 (Pharmaron, stored at −70° C.); Avi tag
T1 sequence (Q9UDY8 1-824): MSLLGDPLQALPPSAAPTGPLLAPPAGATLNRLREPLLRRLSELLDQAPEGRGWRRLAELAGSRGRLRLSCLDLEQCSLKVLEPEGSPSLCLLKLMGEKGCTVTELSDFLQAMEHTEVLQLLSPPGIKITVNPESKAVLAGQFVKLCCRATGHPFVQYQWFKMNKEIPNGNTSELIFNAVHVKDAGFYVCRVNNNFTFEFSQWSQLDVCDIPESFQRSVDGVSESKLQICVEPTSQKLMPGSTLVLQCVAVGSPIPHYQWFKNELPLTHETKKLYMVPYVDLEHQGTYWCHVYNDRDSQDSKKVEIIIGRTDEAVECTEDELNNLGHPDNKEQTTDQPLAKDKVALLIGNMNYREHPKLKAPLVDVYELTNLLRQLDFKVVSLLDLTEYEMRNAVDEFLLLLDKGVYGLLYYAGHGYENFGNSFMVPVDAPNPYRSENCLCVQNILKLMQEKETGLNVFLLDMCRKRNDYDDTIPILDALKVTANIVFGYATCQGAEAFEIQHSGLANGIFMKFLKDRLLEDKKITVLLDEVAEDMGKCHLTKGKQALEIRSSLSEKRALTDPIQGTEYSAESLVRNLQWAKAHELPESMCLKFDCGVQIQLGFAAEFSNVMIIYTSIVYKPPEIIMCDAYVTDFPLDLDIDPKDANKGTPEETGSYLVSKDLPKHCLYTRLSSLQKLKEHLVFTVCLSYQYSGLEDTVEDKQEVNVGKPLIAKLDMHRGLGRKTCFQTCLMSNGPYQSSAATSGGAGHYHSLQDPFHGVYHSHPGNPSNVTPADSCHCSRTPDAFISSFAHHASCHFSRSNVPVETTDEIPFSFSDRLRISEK
Method: Inhibition of MALT1 activity by the presence of small molecules was evaluated using MALT-1 Fluorogenic Peptide Cleavage Assay. The assay utilizes a quenched AMC-labelled peptide that contains the MALT-1 recognition sequence and cleavage site (LRSR). MALT-1 mediated cleavage of the peptide relieves the quenching and leads to an increase in fluorescence at excitation (342 nm) and emission (441 nm). The following reagents were obtained commercially and used to prepare standard reagent formulations as further described below: […] The standard reagent formulations used in this assay were prepared and stored as follows. A 1.1 M solution of sodium citrate (161.3 g, 500 mL) was prepared and stored at room temperature. A 10% (w/v) CHAPS solution (2.0 g, 20 mL) was prepared and stored at 4° C. A 500 mM HEPES solution having pH of 6.89 was prepared from 200 mL of a 1 M HEPES solution having a pH of 7.5 using concentrated hydrochloric acid and brought to a final volume of 400 mL with […]® H2O. The substrate, 10 mM Ac-LRSR-AMC Peptide, was prepared (10 mg, 1.370 mL DMSO) and stored at -20° C. Compounds were plated to provide a 2% DMSO final concentration using a ProxiPlate-384 Plus F Black 384-shallow well microplate. The assay-ready plates were equilibrated to room temperature. […] DMSO was added only when compound plates had not been DMSO-backfilled to 2%. MALT-1 was thawed and kept on ice. Peptide substrate was thawed on the bench under ambient conditions. A MALT-1 enzyme working stock was prepared from Avi-tagged FL MALT-1 (40 nM in a prepared reagent volume of 16.5 μL) and the reaction buffer (13.0 mL). MALT1 working stock (5 μL) was added to each well of the microplate. MALT-1 was pre-incubated with compounds for 30 minutes at room temperature. […] The plates were covered and incubated on the bench at room temperature for 90 minutes. Fluorescence intensity was determined using a CLARIOstar microplate reader (BMG LABTECH) using the optimised AMC mode. Before taking readings, a 70% gain was applied on the neutral control well. Compound data were normalised to % Inhibition and used to plot sigmoidal concentration response curves to yield various parameters including IC50. […] Compounds in which an IC50 was not measured are designated as “N/A”.

[1] = Homo sapiens, Jurkat, Jurkat cells, 1 hr compound incubation, aCD3/aCD28/PMA stimulation 4 hr, One-Glo readout

COc1ccc2cnn(C)c2c1NS(=O)(=O)c1ccc(-n2cc(C(C)O)cn2)nc1 (stereo not drawn) [Example I-280, 6-(4-(1-Hydroxyethyl)-1H-Pyrazol-1-yl)-N-(6-Methoxy-1-Methyl-1H-Indazol-7-yl)Pyridine-3-Sulfonamide]
IC50 (NF-kB; [1]): < 0.4 µM | IC50 (MALT1): 0.4 to 1 µM

Cn1ncc2cccc(NS(=O)(=O)c3ccc(-n4cc(CO)cn4)nc3)c21 [Example I-279]
IC50 (NF-kB; [1]): < 0.4 µM | IC50 (MALT1): > 2.5 µM

Cn1ncc2cccc(NS(=O)(=O)c3ccc(-n4nccc4C4CC4)nc3)c21 [Example I-62, 6-(5-Cyclopropylpyrazol-1-yl)-N-(1-Methylindazol-7-yl)Pyridine-3-Sulfonamide]
IC50 (NF-kB; [1]): < 0.4 µM | IC50 (MALT1): > 2.5 µM

Cn1ncc2cccc(NS(=O)(=O)c3ccc(-n4cc(C(F)F)cn4)nc3)c21 [Example I-50, 6-[4-(Difluoromethyl)Pyrazol-1-Yl]-N-(1-Methylindazol-7-yl)Pyridine-3-Sulfonamide]
IC50 (NF-kB; [1]): < 0.4 µM | IC50 (MALT1): 0.4 to 1 µM

COC1(c2cnn(-c3ccc(S(=O)(=O)Nc4cccc5cnn(C)c45)cn3)c2)CC1 [Example I-251, 6-(4-(1-methoxycyclopropyl)-1H-pyrazol-1-yl)-N-(1-methyl-1H-indazol-7-yl)pyridine-3-sulfonamide]
IC50 (NF-kB; [1]): < 0.4 µM | IC50 (MALT1): > 2.5 µM

COc1ccc2cnn(C)c2c1NS(=O)(=O)c1ccc(-c2cnc(C)s2)nc1 [Example I-149, N-(6-Methoxy-1-Methyl-1H-Indazol-7-yl)-6-(2-Methylthiazol-5-yl)Pyridine-3-Sulfonamide]
IC50 (NF-kB; [1]): < 0.4 µM | IC50 (MALT1): < 0.4 µM

COc1ccc2cnn(C)c2c1NS(=O)(=O)c1ccc(-n2cccn2)nc1 [Example I-15, N-(6-Methoxy-1-Methyl-1H-Indazol-7-yl)-6-(1H-Pyrazol-1-yl) Pyridine-3-Sulfonamide]
IC50 (NF-kB; [1]): < 0.4 µM | IC50 (MALT1): 1 to 2.5 µM

COc1cccc(-c2ccc(S(=O)(=O)Nc3cccc4cnn(C)c34)cn2)n1 [Example I-111, 6′-Methoxy-N-(1-Methyl-1H-Indazol-7-yl)-[2,2′-Bipyridine]-5-Sulfonamide]
IC50 (NF-kB; [1]): < 0.4 µM | IC50 (MALT1): > 2.5 µM

COc1ccc2cnn(C)c2c1NS(=O)(=O)c1ccc(-c2nnc(C)o2)nc1 [Example I-170, N-(6-Methoxy-1-Methyl-1H-Indazol-7-yl)-6-(5-Methyl-1,3,4-Oxadiazol-2-yl)Pyridine-3-Sulfonamide]
IC50 (NF-kB; [1]): > 2.5 µM | IC50 (MALT1): > 2.5 µM

CC(O)c1cnn(-c2ccc(S(=O)(=O)Nc3cccc4cnn(C)c34)cn2)c1 (stereo not drawn) [Example I-283]
IC50 (NF-kB; Jurkat cells, 1 hr compound incubation, aCD3/aCD28/PMA stimulation 4 hr, One-Glo readout): < 0.4 µM | IC50 (MALT1): > 2.5 µM

Cn1ncc2cccc(NS(=O)(=O)c3ccc(-c4cnc5n4CCOC5)nc3)c21 [Example I-309, 6-(5,6-dihydro-8H-imidazo[2,1-c][1,4]oxazin-3-yl)-N-(1-methyl-1H-indazol-7-yl)pyridine-3-sulfonamide]
IC50 (NF-kB; [1]): < 0.4 µM | IC50 (MALT1): > 2.5 µM

Cn1ncc2cccc(NS(=O)(=O)c3ccc(-n4cc(C(C)(C)O)cn4)nc3)c21 [Example I-277]
IC50 (NF-kB; [1]): 0.4 to 1 µM | IC50 (MALT1): > 2.5 µM

COc1cnn(-c2ccc(S(=O)(=O)Nc3cccc4cnn(C)c34)cn2)c1 [Example I-35, 6-(4-Methoxy-1H-Pyrazol-1-yl)-N-(1-Methyl-1H-Indazol-7-yl)Pyridine-3-Sulfonamide]
IC50 (NF-kB; [1]): < 0.4 µM | IC50 (MALT1): > 2.5 µM

Cc1ncncc1-c1ccc(S(=O)(=O)Nc2cccc3cnn(C)c23)cn1 [Example I-115]
IC50 (NF-kB; [1]): > 2.5 µM | IC50 (MALT1): > 2.5 µM

CCc1ccc2cnn(C)c2c1NS(=O)(=O)c1ccc(-n2cc(C(F)(F)F)cn2)nc1 [Example I-2]
IC50 (NF-kB; [1]): < 0.4 µM | IC50 (MALT1): < 0.4 µM

COc1ccc2cnn(C)c2c1NS(=O)(=O)c1ccc(-c2cnn3c2OCCC3)nc1 [Example I-303, 6-(6,7-dihydro-5H-pyrazolo[5,1-b][1,3]oxazin-3-yl)-N-(6-methoxy-1-methyl-1H-indazol-7-yl)pyridine-3-sulfonamide]
IC50 (NF-kB; [1]): 0.4 to 1 µM | IC50 (MALT1): > 2.5 µM

CC(C)c1ncc(-c2ccc(S(=O)(=O)Nc3cccc4cnn(C)c34)cn2)s1 [Example I-266, 6-(2-isopropyl-1,3-thiazol-5-yl)-N-(1-methylindazol-7-yl)pyridine-3-sulfonamide]
IC50 (NF-kB; Homo sapiens, Jurkat): < 0.4 µM | IC50 (MALT1): > 2.5 µM

Cn1ncc2cccc(NS(=O)(=O)c3ccc(-c4cnc(N5CCOCC5)s4)nc3)c21 [Example I-244, N-(1-methyl-1H-indazol-7-yl)-6-(2-morpholinothiazol-5-yl)pyridine-3-sulfonamide]
IC50 (NF-kB; Homo sapiens, Jurkat): < 0.4 µM | IC50 (MALT1): > 2.5 µM

COc1ncc2cnn(C)c2c1NS(=O)(=O)c1ccc(-n2cc(F)cn2)nc1 [Example I-193, 6-(4-fluoro-1H-pyrazol-1-yl)-N-(6-methoxy-1-methyl-1H-pyrazolo[4,3-c]pyridin-7-yl)pyridine-3-sulfonamide]
IC50 (NF-kB; [1]): < 0.4 µM | IC50 (MALT1): < 0.4 µM

COCCn1ncc2cccc(NS(=O)(=O)c3ccc(-c4cnn(C)c4C)nc3)c21 [Example I-218, 6-(1,5-Dimethyl-1H-Pyrazol-4-yl)-N-(1-(2-Methoxyethyl)-1H-Indazol-7-yl)Pyridine-3-Sulfonamide]
IC50 (NF-kB; [1]): > 2.5 µM | IC50 (MALT1): > 2.5 µM

O=S(=O)(c1ccc(-n2cc(C(F)(F)F)cn2)nc1)N1CCCn2ncc3cccc1c32 [Example I-292, 1-((6-(4-(trifluoromethyl)-1H-pyrazol-1-yl)pyridin-3-yl)sulfonyl)-1,2,3,4-tetrahydro-[1,4]diazepino[3,2,1-hi]indazole]
IC50 (NF-kB; [1]): 0.4 to 1 µM | IC50 (MALT1): > 2.5 µM

CN1CCn2ncc(-c3ccc(S(=O)(=O)Nc4cccc5cnn(C)c45)cn3)c2C1 [Example I-314, 6-{5-methyl-4H,6H,7H-pyrazolo[1,5-a]pyrazin-3-yl}-N-(1-methylindazol-7-yl)pyridine-3-sulfonamide]
IC50 (NF-kB; [1]): 1 to 2.5 µM | IC50 (MALT1): > 2.5 µM

Cn1ncc2cccc(NS(=O)(=O)c3ccc(-c4ccn[nH]4)nc3)c21 [Example I-81, N-(1-Methyl-1H-Indazol-7-yl)-6-(1H-Pyrazol-5-yl)Pyridine-3-Sulfonamide]
IC50 (NF-kB; [1]): 0.4 to 1 µM | IC50 (MALT1): > 2.5 µM

CCc1ccc2cnn(C)c2c1NS(=O)(=O)c1ccc(-n2nccc2C(F)(F)F)nc1 [Example I-126, N-(6-ethyl-1-methyl-1H-indazol-7-yl)-6-(5-(trifluoromethyl)-1H-pyrazol-1-yl)pyridine-3-sulfonamide]
IC50 (NF-kB; [1]): < 0.4 µM | IC50 (MALT1): < 0.4 µM
